This note sets out measurements from patent US4396543A.

Each structure is given as a SMILES string. Converted amounts (≈) assume the structure as drawn. “And” between values parts separate entries of the source, which are not always exact repeats. Identical values can stand only once. Some results are limits rather than exact numbers.

One data set relates to Streptococcus pyogenes. In words: in vivo experimental bacterial infection, ED50. Conditions: mice; for ED50 Values Streptococcus pyogenes Oral: two doses orally; for ED50 Values Streptococcus pyogenes Subcutaneous: two doses subcutaneously, two values = two experiments.
The test system of data set [1] is Streptococcus pyogenes C203. In words: agar-dilution MIC. Particulars: two values = two experiments, 2 median of five, 19 median of three. It counts as cell-based.
A further data set relates to Staphylococcus aureus. In words: in vivo experimental bacterial infection, ED50. Particulars: mice, two doses subcutaneously; two values = two experiments.
For data set [2], the system named is Staphylococcus epidermidis EPI1. The data set is classed as cell-based. Conditions: two values = two experiments, 2 median of five, 19 median of three.
Data set [3] deals with Staphylococcus epidermidis EPI2. As to the kind of experiment: agar-dilution MIC. It counts as cell-based. Conditions: two values = two experiments, 2 median of five, 19 median of three.
Data set [4] has as its system Staphylococcus aureus X1.1. As to the kind of experiment: agar-dilution MIC. The data set is classed as cell-based. Conditions: two values = two experiments, 2 median of five, 19 median of three experiments.
Procedure: (§1) In Table VII activity is measured by the minimal inhibitory concentration (MIC), i.e. the lowest concentration of compound at which growth of the microorganism is inhibited by the test compound.
Data set [5] has as its system Streptococcus Group D X66. In words: agar-dilution MIC. It counts as cell-based. Particulars: two values = two experiments, 2 median of five, 19 median of three.
Procedure: as §1
Data set [6] deals with Staphylococcus aureus X400. In words: agar-dilution MIC. Particulars: Staphylococcus aureus X400, methicillin-resistant strain; two values = two experiments; 2 median of five, 19 median of three. The data set is classed as cell-based.
Procedure: as §1
For data set [7], the system named is Streptococcus Group D 9960. In words: agar-dilution MIC. It counts as cell-based. Particulars: two values = two experiments, 2 median of five, 19 median of three.
Procedure: as §1
For data set [8], the system named is Staphylococcus aureus V41. As to the kind of experiment: agar-dilution MIC. The data set is classed as cell-based. Particulars: Staphylococcus aureus V41, penicillin-resistant strain; two values = two experiments; 2 median of five, 19 median of three.
Procedure: as §1
Another data set is described as follows: toxicity test, LD50. Conditions: mouse, in vivo, iv; administered intravenously; read-out: LD50 (mg/kg) in Mice.

As usually defined, the MIC is the lowest concentration found to suppress growth. A higher MIC goes with a need for much substance. For `CCCCCCCCCCCCC(=O)N[C@@H](Cc1ccccc1)C(=O)N[C@@H](Cc1c[nH]c2ccccc12)C(=O)N[C@H](CC(N)=O)C(=O)N[C@@H](CC(=O)O)C(=O)N[C@@H]1C(=O)NCC(=O)N[C@@H](CCCN)C(=O)N[C@@H](CC(=O)O)C(=O)N[C@H](C)C(=O)N[C@@H](CC(=O)O)C(=O)NCC(=O)N[C@H](CO)C(=O)N[C@@H]([C@H](C)CC(=O)O)C(=O)N[C@@H](CC(=O)c2ccccc2N)C(=O)O[C@@H]1C` [Compound 21], the “ED50 Values Streptococcus pyogenes Oral” value in the data set with Streptococcus pyogenes is listed as over 200 mg/kg × 2. The “ED50 Values Streptococcus pyogenes Subcutaneous” value with Streptococcus pyogenes is reported as 0.14 mg/kg × 2. The MIC in data set [1] was found to be 0.125 µg/mL (≈ 0.0691 µM); in data set [2], 2 µg/mL (≈ 1.11 µM); in data set [3], 2 µg/mL (≈ 1.11 µM); in [4], 0.5 µg/mL (≈ 0.276 µM); in data set [5], 1 µg/mL (≈ 0.553 µM); in data set [6], 2 µg/mL (≈ 1.11 µM). In addition, the minimal inhibitory concentration (MIC) in data set [7] was found to be 0.25 µg/mL (≈ 0.138 µM); in [8], 0.5 µg/mL (≈ 0.276 µM). For the same molecule, the “ED50 Values Staphylococcus aureus Subcutaneous” value in the data set on Staphylococcus aureus was determined as 0.76 mg/kg × 2.
As to `CCCCCC(=O)N[C@@H](Cc1c[nH]c2ccccc12)C(=O)NCCC[C@@H]1NC(=O)CNC(=O)[C@@H](NC(=O)[C@H](CC(=O)O)NC(=O)[C@@H](CC(N)=O)NC(=O)[C@H](Cc2c[nH]c3ccccc23)NC(=O)CCCCCCCCC(C)CC)[C@@H](C)OC(=O)[C@H](CC(=O)c2ccccc2N)NC(=O)[C@H]([C@H](C)CC(=O)O)NC(=O)[C@@H](CO)NC(=O)CNC(=O)[C@H](CC(=O)O)NC(=O)[C@@H](C)NC(=O)[C@H](CC(=O)O)NC1=O` (stereo partly drawn) [Compound 29], the “ED50 Values Streptococcus pyogenes Oral” value in the data set with Streptococcus pyogenes is reported as over 200 mg/kg × 2. For the same molecule, in the data set with Streptococcus pyogenes, the “ED50 Values Streptococcus pyogenes Subcutaneous” value is 10.6 mg/kg × 2. Moreover, the minimal inhibitory concentration (MIC) in data set [5] came out at 8 µg/mL (≈ 4.11 µM); in data set [6], 1 µg/mL (≈ 0.514 µM); in data set [7] it was 32 µg/mL (≈ 16.4 µM). The LD50 in the data set “toxicity test, LD50” was 37.5 mg/kg.
With `CCCCCCCCCCCCCC(=O)N[C@@H](Cc1ccccc1)C(=O)N[C@@H](Cc1c[nH]c2ccccc12)C(=O)N[C@H](CC(N)=O)C(=O)N[C@@H](CC(=O)O)C(=O)N[C@@H]1C(=O)NCC(=O)N[C@@H](CCCN)C(=O)N[C@@H](CC(=O)O)C(=O)N[C@H](C)C(=O)N[C@@H](CC(=O)O)C(=O)NCC(=O)N[C@H](CO)C(=O)N[C@@H]([C@H](C)CC(=O)O)C(=O)N[C@@H](CC(=O)c2ccccc2N)C(=O)O[C@@H]1C` [Compound 22], the “ED50 Values Streptococcus pyogenes Oral” value in the data set on Streptococcus pyogenes is listed as over 200 mg/kg × 2. Besides, the “ED50 Values Streptococcus pyogenes Subcutaneous” value with Streptococcus pyogenes is < 0.27 mg/kg × 2 and 0.36 mg/kg × 2. Further, the MIC amounted to 0.25 µg/mL (≈ 0.137 µM) in [1]; 4 µg/mL (≈ 2.19 µM) in [2]; 4 µg/mL (≈ 2.19 µM) in data set [3]; 0.5 µg/mL (≈ 0.274 µM) in data set [4]; 1 µg/mL (≈ 0.548 µM) in [5]; 2 µg/mL (≈ 1.1 µM) in data set [6]. In addition, the minimum inhibitory concentration (MIC) amounted to 0.5 µg/mL (≈ 0.274 µM) in data set [7] and 1 µg/mL (≈ 0.548 µM) in data set [8]. Also, the “ED50 Values Staphylococcus aureus Subcutaneous” value in the data set with Staphylococcus aureus is reported as 4.8 mg/kg × 2.
`CCCCCCCCCCC(=O)N[C@@H](Cc1ccccc1)C(=O)NCCC[C@@H]1NC(=O)CNC(=O)[C@@H](NC(=O)[C@H](CC(=O)O)NC(=O)[C@@H](CC(N)=O)NC(=O)[C@@H](N)Cc2c[nH]c3ccccc23)[C@@H](C)OC(=O)[C@H](CC(=O)c2ccccc2N)NC(=O)[C@H]([C@H](C)CC(=O)O)NC(=O)[C@@H](CO)NC(=O)CNC(=O)[C@H](CC(=O)O)NC(=O)[C@@H](C)NC(=O)[C@H](CC(=O)O)NC1=O` [Compound 26]: the “ED50 Values Streptococcus pyogenes Oral” value in the data set with Streptococcus pyogenes is over 200 mg/kg × 2. Moreover, the “ED50 Values Streptococcus pyogenes Subcutaneous” value in the data set with Streptococcus pyogenes was over 18 mg/kg × 2. Moreover, the MIC in data set [1] is 1 µg/mL (≈ 0.561 µM); in data set [2] it was over 128 µg/mL; in data set [3], over 128 µg/mL; in data set [4], 8 µg/mL (≈ 4.49 µM); in [5], over 128 µg/mL; in data set [6], over 128 µg/mL. Also, the MIC in [7] was 32 µg/mL (≈ 18 µM); in data set [8], over 128 µg/mL. In the data set on Staphylococcus aureus, the “ED50 Values Staphylococcus aureus Subcutaneous” value stood at 9.2 mg/kg × 2.
